# From US20060148907A1, “Topical antinflammatory preparations of y-terpinene” (priority 2002, published 2006)
# Entries after “also recorded” stand apart in the source; their conditions may differ. Like-named read-outs stand apart in the source and are kept apart here.
# Tests used:
# [1] = cited from earlier work
# [2] = system: skin erythemal response induced by solar simulated UV on the dorsal skin of human subjects; assay: Human study: reduction of skin erythemal response induced by solar simulated UV; format: in vivo; conditions: for Reduction in Erythema vs Base: 4 mg/sq cm immediately after irradiation and 4-5 hours later, erythema read 16-24 hours later; for statistical difference from the Base and UV alone (MED): p<0.05
# [3] = system: carrageenan induced hind paw edema; conditions: cited from earlier work
# [4] = 0.25% in BP 1988 Cetomacrogol Cream
# [5] = 0.5% in BP 1988 Cetomacrogol Cream
# [6] = 1% (1.0%) in BP 1988 Cetomacrogol Cream
SMILES,"Reduction in Erythema vs Base [2, 4]","Reduction in Erythema vs Base [2, 5]",anti-inflammatory effectiveness in words (compared to Indomethacin) ([2]; 1% (1.0%) product),"Reduction in Erythema vs Base [2, 6]",anti-inflammatory effectiveness in words (compared to Indomethacin) ([2]; 0.25% product),further results
"CC1=CCC(O)(C(C)C)CC1 (stereo not drawn) [Terpinen-4-ol, terpinen-4-ol, reference compound]",7%,45%,good performance status,,,acute oral LD50 [1]: 1300 mg/kg; anti-inflammatory activity ([3]; dosages from 0.03 mg/paw to 6.0 mg/paw): significant anti-inflammatory activity
"COc1ccc2c(c1)c(CC(=O)O)c(C)n2C(=O)c1ccc(Cl)cc1 [Indomethacin, reference compound]",,,most effective anti-inflammatory,66%,,
CC1=CCC(C(C)C)=CC1 [γ-terpinene],52%,29%,statistically similar,32%,high effective anti-inflammatory,statistical difference from the Base and UV alone (MED) ([2]; 0.25% product): statistically different; more erythema than Indomethacin ([2]; 1.0% product vs 1% Indomethacin): 98%; reducing UV erythema (MED) ([2]; 1.0% product vs UV alone (MED)): 39%; statistical difference from the Base and UV alone (MED) ([2]; 1.0% product): not significantly different from the Base; also recorded: significantly different from the MED; anti-inflammatory activity ([3]; dose not given): ineffective; also recorded: did not exhibit any significant anti-inflammatory activity
"CC(C)=CCC[C@](C)(O)[C@@H]1CC=C(C)CC1 [(−) alpha-Bisabolol, (−)-alpha-bisabolol, reference compound]",10%,44%,,,,statistical difference from the Base and UV alone (MED) ([2]; 0.50% product): statistically different
CC1=CC=C(C(C)C)CC1 [α-terpinene],58%,,,,good performance status,"anti-inflammatory activity (inhibition of edema formation) ([3]; highest dose tested, 6 mg/paw): significant anti-inflammatory activity; anti-inflammatory activity (inhibition of edema formation) ([3]; lesser dosages than 6 mg/paw): relatively weak"
